Data reported in patent publication US4469786A (priority 1981, dated 1984).

Assays:
[1] = test system: single-stranded .phi.105 DNA
DNA [2] = settings: cited from earlier work
[3] = test system: Salmonella tester strains; settings: literature (McCann, Bartsch, Glatt); cited from earlier work
[4] = test system: replicative-form .phi.105DII:6C DNA; assay: gene linkage disruption in the marker rescue assay with .phi.105DII:6C DNA; settings: PO, same conditions as Example 5 (25 to 100 mM)
DNA [5] = settings: transformation-based assay of Phillips et al.; cited from earlier work

Compound: CC(=O)ON(C(C)=O)c1ccc2c(c1)Cc1ccccc1-2 [AAAF, N-acetyl-N-acetoxy-2-aminofluorine]
- frequency of clear PFU, earliest sample [1]: there appeared to be an increase in the frequency of clear PFU
- marker rescue activity, subsequent samples [1]: very rapid and extensive loss of marker rescue activity
- numbers of clear-plaque mutants generated ([1]; 35 mM AAAF, 37° C., 1-9 min., Hcr^+ recipient GB68, FIG. 6): increased with length of AAAF treatment
- frequency of clear-plaque mutants, subsequent samples ([1]; 35 mM AAAF, 37° C., subsequent samples, Hcr^- recipient GB7075): concomitant decrease in the frequency of clear-plaque mutants
- lesion in DNA / reactivity with DNA (DNA [2]): potent frameshift mutagen which forms two different guanine adducts

Compound: O=CCCl [CAA, chloroacetaldehyde]
- lesion in DNA / reactivity with DNA (DNA [2]): reacts with adenines and cytosines to form imidazonucleoside derivatives

Compound: ClC(Cl)(Cl)Cl [CCl4]
- mutagenicity in the Ames assay [3]: not mutagenic in the Ames assay

Compound: ClC(Cl)Cl [CHCl3]
- mutagenicity in the Ames assay [3]: not mutagenic in the Ames assay

Compound: ClC(Cl)=C(c1ccc(Cl)cc1)c1ccc(Cl)cc1 [DDE]
- mutagenicity in the Ames assay [3]: not mutagenic in the Ames assay

Compound: NO [HA, hydroxylamine]
- marker rescue activity [1]: loss of marker rescue activity
- frequency of clear PFU/total PFU (capacity of treated DNA to generate clear-plaque mutants) ([1]; 1M HA, single-stranded DNA, 45° C., 0-60 minutes, GB68, FIG. 2): A time dependent increase in the capacity of the treated DNA to generate clear-plaque mutants
- lesion in DNA / reactivity with DNA (DNA [2]): induces predominantly guanine-cytosine to adenine-thymine transitions

Compound: CC1CO1 (centres unmarked) [PO, propylene oxide]
- frequency of clear PFU at the highest concentration [1]: a decrease in the frequency of clear PFU
- marker rescue activity [1]: No consistent decrease in marker rescue activity
- significance (p) of increase in frequency of clear PFU [1]: < 0.001
- disruption of linkage between J^+ allele and DII:6C mutation [4]: no significant disruption of linkage
- strand scission (DNA [5]): PO-induced strand scission which was observed
- lesion in DNA / reactivity with DNA (DNA [2]): reacts with guanine and adenine residues but has also been claimed to react with the phosphodiester backbone of DNA producing strand scissions

Compound: ClC1=C(Cl)[C@]2(Cl)[C@@H]3[C@@H]4C[C@@H]([C@H]5O[C@@H]45)[C@@H]3[C@@]1(Cl)C2(Cl)Cl [dieldrin]
- mutagenicity in the Ames assay [3]: not mutagenic in the Ames assay

Compound: CC/C(=C(/CC)c1ccc(O)cc1)c1ccc(O)cc1 [diethylstilbestrol]
- mutagenicity in the Ames assay [3]: not mutagenic in the Ames assay
